Paper PMC6523505, “Inhibition of Oncogenic Kinases: An In Vitro Validated Computational Approach Identified Potential Multi-Target Anticancer Compounds” (Biomolecules, 2019)

Key:
[1] = system: HeLa (human epithelial cervical cancer) cell line; assay: MTT cytotoxicity assay; assay type: cell-based; settings: after 48 h of treatment, mean ± S.D
Excerpt: (§1) HeLa (human epithelial cervical cancer, ATCC CCL-2), HepG2 (human epithelial liver cancer, ATCC HB-8065) and Vero (monkey epithelial kidney […], ATCC CCL-81) cell lines were used to examine the selected virtual hit compounds’ anti-cancer activity. All cell lines were generously provided by the late Prof. Dr. M.H. Qazi, University of Lahore, Lahore, Pakistan. The test compounds were purchased via MolPort and cisplatin from Pharmedic (Pvt) Ltd., Lahore, Pakistan. Cell culture media, fetal calf serum (FCS), MTT (3-[[…]]-2,5-diphenyltetrazolium bromide), DMSO, antibiotic/antimycotic and Supplementary Materials were purchased from Thermo Fisher Scientific, Inc, (Waltham, MA, USA).
(§2) Cells were harvested at 80% confluence by treating the medium-free monolayer with trypsin-EDTA. Cell counts were performed with a hemocytometer, and cell viability was determined with trypan blue. The cell suspension was adjusted to a final concentration of […] in DMEM (Dulbecco’s modified Eagle medium) with 10% FCS. Cells were dispensed to tissue culture grade 96-well plates, with each microwell receiving 100 µL, i.e., 7000 cells per microwell. The plate was incubated at 37 °C for 12 h in 5% CO2 incubator. Stock solutions (10 mM) of the test compounds and positive control were prepared in DMSO. Test concentrations were prepared by diluting the stocks with the growth media. Test compound solutions were diluted from 100 µL to a final well volume of 200 µL. MTT reagent was prepared in phosphate-buffered saline (PBS) in a concentration of 5 mg/mL. After 48 h, 25 µL of MTT reagent was added to each microwell, followed by incubation for 5 h. MTT is reduced by metabolically active cells to insoluble purple formazan crystals by mitochondrial enzymes. The reduction of MTT is primarily due to glycolytic activity within the cell, and is dependent upon the presence of NADH and NADPH. The entire contents of each microwell were carefully pipetted out without disturbing the cells on the well floor. In order to solubilize the formazan crystals, 100 µL of DMSO was dispensed to each well. The absorbance was measured with the help of a Bio Rad PR 4100 microplate reader at a wavelength of 570 nm. Serial dilutions of cisplatin were used as a positive control, while the negative controls contained only the reagent, but not any drug. Percentage viability was calculated and dose–response curves were plotted using the percentage viability against the drug/test compound concentration (µM). Results represent mean ±SD of six readings: three determinations of two independent experiments.
(§3) These four compounds were subsequently tested for their cytotoxic effect on different cell lines. Cell viability assays on cancer cell lines HeLa and HepG2 and non-cancerous Vero cell line were performed using the lead compounds (Z21, Z88, F34, AF3) with doses ranging from 50 to 400 µM. Cisplatin was used as a positive control at dose levels of 1 µM, 10 µM, and 20 µM. Dose–response curves of all four inhibitors against the three cell lines show the moderate sensitivity of all cell line toward these inhibitors (Figure 6).

[2] = system: HepG2 (human epithelial liver cancer) cell line; assay: MTT cytotoxicity assay; assay type: cell-based; settings: after 48 h of treatment, mean ± S.D
Excerpt: as §1, §2, §3

[3] = system: Vero (monkey epithelial kidney) cell line; assay: MTT cytotoxicity assay; assay type: cell-based; settings: after 48 h of treatment, mean ± S.D
Excerpt: as §1, §2, §3

cannabinoid CB1 receptor = target: cannabinoid CB1 receptor; design: method as in PMID 17027269; settings: cited from earlier work
[4] = system: VEGF, RET, MET, NTRKB, TIE2, AXL; settings: FDA-approved kinase inhibitor, against tested cell lines, no reference given; cited from earlier work
[5] = system: BCR-ABL, SRC, KIT, PDGFR, EPH, CSK; settings: FDA-approved kinase inhibitor, against tested cell lines, no reference given; cited from earlier work
[6] = system: BCR-ABL, KIT, LCK, EPHA3, 8, DDR1, 2; settings: FDA-approved kinase inhibitor, against tested cell lines, no reference given; cited from earlier work
PDGFR, VEGFR = settings: FDA-approved kinase inhibitor, against tested cell lines, no reference given; cited from earlier work
[7] = system: TIE2, PDGFR, RET, KIT, B-RAF; settings: FDA-approved kinase inhibitor, against tested cell lines, no reference given; cited from earlier work
[8] = system: EGFR, VEGFR, RET, Tie-2, FGFR1; settings: FDA-approved kinase inhibitor, against tested cell lines, no reference given; cited from earlier work

Row | Structure (SMILES) | IC50 [1] [µM] | IC50 [2] [µM] | IC50 [3] [µM] | also measured
1 | COc1ccc(C(=O)Oc2ccc3c(=O)c(Oc4ccc5ccccc5c4)coc3c2)cc1 [AF3] | 176 ± 2.12 | 188 ± 2.31 | 209 ± 2.43 | 
2 | N.N.[Cl][Pt][Cl] [Cisplatin, cisplatin, reference compound] | 6.02 ± 1.59 | 6.41 ± 1.54 | 7.99 ± 2.38 | 
3 | Cc1ccc(NC(=O)Cn2cnc3sc(-c4nc(-c5ccccc5)no4)c(C)c3c2=O)cc1Cl [Compound F34] | 145 ± 2.06 | 175.5 ± 1.66 | 131 ± 2.3 | 
4 | O=S(=O)(c1cccc(NCc2cccc3ccccc23)c1)N1CCOCC1 [Compound Z21] | 231 ± 2.35 | 246 ± 1.93 | 250.2 ± 2.34 | 
5 | O=C(CCn1[nH]c(=O)c2ccccc2c1=O)N1CCCC1c1ccc2c(c1)OCCO2 (stereo not shown) [Compound Z88] | 218.7 ± 2.04 | 222.1 ± 1.68 | 204.8 ± 1.78 | 
6 | O=C(Nc1ccc(Cl)c(S(=O)(=O)N2CCOCC2)c1)c1cccc2ccccc12 [N-(4-chloro-3-(morpholinosulfonyl)phenyl)-1-naphthamide] |  |  |  | IC50 (cannabinoid CB1 receptor): nanomolar range
7 | COc1cc2nccc(Oc3ccc(NC(=O)C4(C(=O)Nc5ccc(F)cc5)CC4)cc3)c2cc1OC [cabozantinib] |  |  |  | IC50 [4]: < 0.015 µM
8 | Cc1nc(Nc2ncc(C(=O)Nc3c(C)cccc3Cl)s2)cc(N2CCN(CCO)CC2)n1 [dasatinib] |  |  |  | IC50 [5]: < 0.01 µM
